Reference: patent US8343968B2, “Case of renin inhibitors” (Merck Canada Inc., priority 2007, dated 2013)

How the values were obtained:
[1] = target: T1, renin in human plasma (human recombinant renin) (Homo sapiens, UniProt P00797); test: Inhibition of renin in human plasma, enzymatic in vitro assay with Ang I EIA; format: biochemical; details: human plasma from 10 normal donors; human recombinant renin 3 pM
T1 construct: host or cells: human plasma from 10 normal donors as matrix
T1 sequence (P00797 67-406): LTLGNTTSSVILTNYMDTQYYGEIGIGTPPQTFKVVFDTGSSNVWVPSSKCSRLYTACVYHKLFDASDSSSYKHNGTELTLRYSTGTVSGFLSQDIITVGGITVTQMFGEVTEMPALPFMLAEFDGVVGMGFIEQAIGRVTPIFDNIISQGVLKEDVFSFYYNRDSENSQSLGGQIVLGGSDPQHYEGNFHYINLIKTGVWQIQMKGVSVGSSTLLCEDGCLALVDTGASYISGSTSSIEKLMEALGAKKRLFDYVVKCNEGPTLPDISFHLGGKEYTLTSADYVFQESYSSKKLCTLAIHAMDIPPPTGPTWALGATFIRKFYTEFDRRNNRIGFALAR
Method: Inhibition of Renin in Human Plasma
The enzymatic in vitro assay was performed in 384-well polypropylene plates (Nunc). The assay buffer consisted of PBS (Gibco BRL) including 1 mM EDTA and 0.1% BSA. The reaction mixture was composed of 80 μL per well of human plasma, enzyme, Ang I-antibodies mix and 5 μL of renin inhibitors in DMSO. The human plasma mix was premixed at 4° C. and consists of • human plasma from 10 normal donors • human recombinant renin (3 pM) • Ang I-antibodies. The mixtures were then incubated at 37° C. for 2 h.
To determine the enzymatic activity and its inhibition, the accumulated Ang I was detected by an enzyme immunoassay (EIA) in 384-well plates (Nunc). 10 μL of the reaction mixture or standards were transferred to immuno plates which were previously coated with a covalent complex of Ang I and bovine serum albumin (Ang I-BSA). 70 μL assay buffer were added and the plates were incubated at 4° C. overnight. The plates were washed 3 times with PBS including 0.01% Tween 20, and then incubated for 2 h at RT with an anti rabbit-peroxidase coupled antibody (WA 934, Amersham).

human recombinant renin = target: T2, human recombinant renin (Homo sapiens, UniProt P00797); test: Inhibition of human recombinant renin (buffer), enzymatic in vitro assay with Ang I EIA; format: biochemical; details: assay buffer PBS, 1 mM EDTA, 0.1% BSA; human recombinant renin 40 pM
T2 sequence (P00797 67-406): T1 sequence (P00797 67-406)
Method: Inhibition of Human Recombinant Renin
The enzymatic in vitro assay was performed in 384-well polypropylene plates (Nunc). The assay buffer consisted of PBS (Gibco BRL) including 1 mM EDTA and 0.1% BSA. The reaction mixture were composed of 47.5 μL per well of an enzyme mix and 2.5 μL of renin inhibitors in DMSO. The enzyme mix was premixed at 4° C. and consists of the following components: • human recombinant renin (40 pM) • synthetic human angiotensin(1-14) (0.5 μM) • hydroxyquinoline sulfate (1 mM) The mixtures were then incubated at 37° C. for 3 h. The enzyme reaction was stopped by placing the reaction plate on wet ice.
To determine the enzymatic activity and its inhibition, the accumulated Ang I was detected by an enzyme immunoassay (EIA) in 384-well plates (Nunc). 5 μL of the reaction mixture or standards were transferred to immuno plates which were previously coated with a covalent complex of Ang I and bovine serum albumin (Ang I-BSA). 75 μL of Ang I-antibodies in assay buffer above including 0.01% Tween 20 were added and the plates were incubated at 4° C. overnight.
An alternative protocol could be used by stopping the enzymatic reaction with 0.02N final concentration of HCl. 5 μL of the reaction mixture or standards were transferred to immuno plates and 75 μL of Ang I-antibodies in assay buffer above including 0.01% Tween 20 were added and the plates were incubate at RT for 4 h.
The plates were washed 3 times with PBS including 0.01% Tween 20, and then incubated for 2 h at RT with an anti rabbit-peroxidase coupled antibody (WA 934, Amersham).

SMILES | IC50 [1] [nM] | IC50 (human recombinant renin) [nM]
CCOC(=O)[C@@H]1C[C@H]1COc1cc(CCCOC)cc(CN(C(=O)[C@H]2CNCC[C@@H]2c2ccc(OCCOc3c(Cl)cc(C)cc3Cl)cc2)C2CC2)c1 [Example 1, Ethyl (1R,2R)-2-{[3-({cyclopropyl[((3R,4S)-4-{4-[2-(2,6-dichloro-4-methylphenoxy)-ethoxy]phenyl}piperidin-3-yl)carbonyl]amino}methyl)-5-(3-methoxypropyl)phen-oxy]methyl}cyclopropanecarboxylate] | 11 | 0.064
COCCCc1cc(CN(C(=O)[C@H]2CNCC[C@@H]2c2ccc(OCCOc3c(Cl)cc(C)cc3Cl)cc2)C2CC2)cc(OC[C@@H]2C[C@H]2C(=O)O)c1 [Example 2] | 1.1 | 0.027
COCCCc1cc(CN(C(=O)[C@H]2CNCC[C@@H]2c2ccc(OCCOc3c(Cl)cc(C)cc3Cl)cc2)C2CC2)cc(OCC2(CC(=O)O)CC2)c1 [Example 12, (1-{[3-({Cyclopropyl[((3R,4S)-4-{4-[2-(2,6-dichloro-4-methylphenoxy)ethoxy]-phenyl}piperidin-3-yl)carbonyl]amino}methyl)-5-(3-methoxypropyl)phenoxy]-methyl}cyclopropyl)acetic Acid] | 5.6 | 0.036
COCCCc1cc(CN(C(=O)[C@H]2CNCC[C@@H]2c2ccc(OCCOc3c(Cl)cc(C)cc3Cl)cc2)C2CC2)cc(OCC2(Cc3nn[nH]n3)CC2)c1 [Example 14, (3R,4S)—N-Cyclopropyl-4-{4-[2-(2,6-dichloro-4-methylphenoxy)ethoxy]phenyl}-N-(3-(3-methoxypropyl)-5-{[1-(2H-tetrazol-5-ylmethyl)cyclopropyl]methoxy}benzyl)-piperidine-3-carboxamide] | 2.3 | 0.03
